System: Trichuris vulpis (whipworm)
Assay: Efficacy against Trichuris vulpis (whipworm) in dogs (Example 14)
Conditions: after 7 days; treated on Day 0; 0.5 mg/kg milbemycin oxime alone or with 2.5 mg/kg Compound A; naturally infected dogs

milbemycin oxime
Efficacy against T. vulpis (parasite counts): > 94%

Reference: patent publication US9931320B2, “Parasiticidal oral veterinary compositions comprising systemically-acting active agents, methods and uses thereof” (MERIAL INC., priority 2012, dated 2018)
